From US20130165522A1, “GEL FORMULATIONS FOR THE TOPICAL USE OF 1-AMINO-ALKYLCYCLOHEXANE DERIVATIVES” (MERZ PHARMA GmbH & CO. KGaA, priority 2010, published 2013)

Assays:
Staphylococcus aureus = assay: Antibacterial activity; assay type: cell-based
Propionibacterium acnes = assay: Antibacterial activity; assay type: cell-based

CC1(C)CC(C)(C)CC(C)(N)C1 [neramexane, 1-amino-1,3,3,5,5-pentamethylcyclohexane]
antibacterial activity (Staphylococcus aureus): exhibits antibacterial activity | antibacterial activity (Propionibacterium acnes): exhibits antibacterial activity
